Assays:
recombinant PDI = recombinant PDI (Homo sapiens, UniProt P07237); assay: PDI activity assay (di-eosin-di-gluthathione, eGSSG); assay type: biochemical; details: for PDI Activity at 10 μM (%): compound at 10 μM; for IC50: recombinant PDI, di-eosin-di-gluthathione assay
Procedure: PDI activity assay: The di-eosin-di-gluthathione assay was performed essentially as described (Raturi, A. and Mutus, B Free Radical Biology & Medicine 43; 2007) with the minor modification that we used gluthathione instead of DTT as reducing agent. Briefly, recombinant PDI was incubated with CC642 or analogs in potassium-based assay buffer at 37° C. before reactions were started by addition of gluthathione and di-eosin-di-gluthathione. Release of eosin was measured every 60 seconds for 30 min using excitation/emission filters of 525 nm/545 nm, respectively.
(§1) Next, MM1.S cells were treated with B-CCF642 and purified lysates of treated and untreated cells for B-CCF642 binding proteins using streptavidin beads followed by SDS-PAGE and mass spectroscopy for protein sequencing of a band that contained biotin signal. Among 10 proteins that were only recovered from treated cells PDI was the most abundant but HSP70 family members were also recovered. To test whether HSP70 family members were inhibited by CCF642, chaperone assays were performed that tested rearrangement of partially denatured luciferase. […] However, PDI function, as assessed by the eGSSG assay which measures PDI's reducing capacity, was inhibited by CCF642 (table 1). […] To determine whether PDI activity is inhibited in vivo, the inventors performed IRE1-α immunoblots after CCF642 treatment of MM1.S cells. IRE1-α acts as a sensor for misfolded proteins in the ER and undergoes oligomerization after it binds to misfolded proteins which changes its conformation into an active state. Lavoie et al., Trends in biochemical sciences, 39(10):475-486 (2014). Within 15 min CCF642 caused IRE1-α oligomerization (FIG. 6) which was associated with increase in protein ubiquitination (FIGS. 2b and 4), a well-documented consequence of reduction in PDI activity. Lee et al., EMBO molecular medicine. 6(6):732-743 (2014).

MM1.S = MM1.S myeloma cell viability; assay type: cell-based; details: Homo sapiens; for viability at 6.75 µM: MM1.S, compound at 6.75 μM, read-out: MM1.S Viable cells at 6.75 μM (%); for IC50: MM1.S myeloma cells
Excerpt: Cell lines: Multiple myeloma cell lines MM1.S, MM1.R, NCI-H929 were obtained from ATCC. MM cell lines KMS-12-PE and KMS-12-BM were from the JCRB, JJN-3 from DSMZ, and 5TGM1-luc cells were from Dr. Yoneda at the University of Texas Health Science at San Antonio. HRMM.09 cells were generated in the inventor's lab from a patient who developed refractory myeloma after treatment with steroids, IMiD, proteasome inhibitors, DNA alkylators, and anthracyclines. MM1.S-luc and HRMM.09-luc were generated in the inventor's laboratory by transduction with Cignal™ firefly luciferase control lentivirus obtained from Qiagen™. Lymphoma cells were generated by Mitchell Smith. All MM and lymphoma cells were grown in RPMI 1640 (NaCl 103.45 mM, NaCO3 23.81 mM, Na2HPO4 5.63 mM, KCl 5.33 mM, Ca(NO3)2 4H2O 0.424 mM, MgSO4 0.407 mM, pH around 7.2), supplemented with 10% fetal bovine serum, penicillin G (50 units ml^−1), and streptomycin ([…]). HS-5 cells were grown in appropriate cell culture media. Normal bone marrow cells were obtained from discarded bags of bone marrow grafts from healthy donors and either kept in RPMI with 25% (v/v) HS-5 supernatant for up to 14 days for isolated cytotoxicity assays or frozen and thawed for the sandwich assay. All cells were cultured at 37° C., 5% CO2 in humidified air.

Tolerability in mice = assay type: in vivo, C57BL/KaLwRij mice
MM cell lines = assay: Cytotoxicity in MM cell line panel (trypan blue exclusion, Vicell); assay type: cell-based; details: 72 h, all 8 MM cell lines tested
Procedure: (§2) FIGS. 2(A-B) provide a graph and immunoblot showing the effect of CCF642 on cancer and protein ubiquitination, with FIG. 2(A) showing the activity of CCF642 against a panel of MM and lymphoma cells. Seventy two hours after CCF642 administration, the IC50 by trypan blue exclusion (Vicell™) is <1 μM for all MM and all but one lymphoma line. Normal bone marrow (NL BM) tolerated CCF642; myeloid cells were less sensitive, especially GDM1, with E3 ligase domain mutation of c-CBL and FIG. 2(B) showing that an increase in protein ubiquitination is accompanied by loss of myeloma survival factors in MM cells Immunoblots of MM1.S cells show rise followed by decrease of protein ubiquitination with loss of MM survival factors.
(§3) Cell lines: Multiple myeloma cell lines MM1.S, MM1.R, NCI-H929 were obtained from ATCC. MM cell lines KMS-12-PE and KMS-12-BM were from the JCRB, JJN-3 from DSMZ, and 5TGM1-luc cells were from Dr. Yoneda at the University of Texas Health Science at San Antonio. HRMM.09 cells were generated in the inventor's lab from a patient who developed refractory myeloma after treatment with steroids, IMiD, proteasome inhibitors, DNA alkylators, and anthracyclines. MM1.S-luc and HRMM.09-luc were generated in the inventor's laboratory by transduction with Cignal™ firefly luciferase control lentivirus obtained from Qiagen™. Lymphoma cells were generated by Mitchell Smith. […]

protein ubiquitination = assay: Protein ubiquitination time course immunoblot in MM1.S cells; assay type: cell-based
Excerpt: Protein ubiquitination and depletion of c-MYC, IRF4, and NF-κB. Initial tests were aimed at excluding proteasome inhibitors from further study and used WB for accumulation of ubiquitinated proteins after one day of therapy. […] Another proteasomally regulated protein, p27, disappeared as well.

[1] = system: normal bone marrow (NL BM) cells; assay: Cytotoxicity in normal bone marrow; assay type: cell-based; details: three independent normal bone marrow samples; doses up to 6.75 μM
Procedure: as §2, §3

IRE1-α = IRE1-α oligomerization immunoblot in MM1.S cells; assay type: cell-based
Procedure: as §1

lymphoma cell lines = assay: Cytotoxicity in lymphoma cell line panel (trypan blue exclusion, Vicell); assay type: cell-based; details: 6 of 7 (all but one) lymphoma lines, 72 h
Procedure: as §2, §3

Chain of recombinant PDI (P07237 18-508, species assumed): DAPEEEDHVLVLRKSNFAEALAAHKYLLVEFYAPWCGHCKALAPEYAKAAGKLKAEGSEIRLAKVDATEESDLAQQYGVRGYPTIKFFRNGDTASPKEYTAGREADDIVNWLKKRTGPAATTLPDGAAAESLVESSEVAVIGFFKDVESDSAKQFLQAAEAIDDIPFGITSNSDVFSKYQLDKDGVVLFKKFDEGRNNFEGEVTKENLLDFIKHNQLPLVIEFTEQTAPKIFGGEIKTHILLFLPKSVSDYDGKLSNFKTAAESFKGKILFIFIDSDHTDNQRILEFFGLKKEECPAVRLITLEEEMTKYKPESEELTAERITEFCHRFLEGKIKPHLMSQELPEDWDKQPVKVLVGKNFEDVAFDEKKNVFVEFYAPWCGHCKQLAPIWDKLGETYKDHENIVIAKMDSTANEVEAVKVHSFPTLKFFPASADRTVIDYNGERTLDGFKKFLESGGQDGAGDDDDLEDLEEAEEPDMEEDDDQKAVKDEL

Structure (SMILES)	PDI Activity at 10 μM (%) (recombinant PDI)	IC50 (MM1.S) [µM]	IC50 (recombinant PDI) [µM]	viability at 6.75 µM (MM1.S) [%]	other results
N#Cc1ccc(N2C(=O)C(=Cc3ccc([N+](=O)[O-])s3)SC2=S)cc1 [642-23]	5.92	0.61	1.9	17.5	–
C=CCc1cccc(/C=C2\SC(=S)N(c3ccc(OC)cc3)C2=O)c1O [642-25]	40.37	> 6.75	3.07	92.8	–
COc1ccc(N2C(=O)/C(=C/c3ccc([N+](=O)[O-])s3)SC2=S)cc1 [642-Parent]	21.51	0.25	2.44	8.06	tolerability in 5TGM1-luc engrafted mice (Tolerability in mice; C57BL/KaLwRij mice systemically engrafted with 5TGM1-luc): well tolerated; tolerability IV (Tolerability in mice; albumin-based formulation (10-20% BSA, saline, 10% DMSO) given IV): tolerated by mice when given IV; IC50 (MM cell lines): < 1 µM; IC50 (MM cell lines; listed as CCF642): ~0.5 µM; time to increase in protein ubiquitination (protein ubiquitination): ≤ 30 min; IC50 [1]: > 6.75 µM; time to IRE1-α oligomerization (IRE1-α): ≤ 15 min; IC50 (lymphoma cell lines): < 1 µM
CC(C)C[C@H](NC(=O)[C@H](Cc1ccccc1)NC(=O)c1cnccn1)B(O)O [bortezomib, reference compound]	–	–	–	–	maximal tolerated dose (Tolerability in mice; SC twice a week, C57BL/KaLwRij mice): 0.5 mg/kg

The next lines start with results.

PDI Activity at 10 μM (%) (recombinant PDI)	IC50 (MM1.S) [µM]	IC50 (recombinant PDI) [µM]	Structure (SMILES)	viability at 6.75 µM (MM1.S) [%]	other results
72.37	> 6.75	–	COc1ccc(N2C(=O)C(=Cc3ccc(C(F)(F)F)s3)SC2=S)cc1 [642-20]	92.9	–
71.54	> 6.75	–	COc1ccc(N2C(=O)C(=Cc3ccc(C(=O)O)s3)SC2=S)cc1 [642-21]	102	–
42.12	> 6.75	8.66	COc1ccc(N2C(=O)/C(=C/c3cccc([N+](=O)[O-])c3)SC2=S)cc1 [642-24]	93.5	–

From patent US9359342B2, “Protein disulfide isomerase inhibiting anticancer agents” (THE CLEVELAND CLINIC FOUNDATION, priority 2013, dated 2016)
